Series [1] has as its system A549 transplanted tumor (human non-small cell lung cancer cell line). In words: Example 5: Acla A on A549 transplanted tumor in nude mice. The settings on record: A549, Jef 50 mg/kg/time intragastric, 2 times a day, 14 days, Day 20. The class given is in vivo, BALB/c-nu nude mice. Here is the method: Under sterile conditions, the above tumor cells were collected in the logarithmic growth phase. A549 was injected by subcutaneous injection in an amount of 6×10 6/0.2 mL/nude mice (cell viability>90%) into the right subaxillary of the nude mice, thus establishing transplated tumor models of lung cancer in nude mice. The mice were administered from the second day after the inoculation. The experimental group was intragastrically administered at the experimentally designed amount, the negative control group was intragastrically administered with sterile water, and the positive control group is intragastrically administered with Jef. Each mouse was intragastrically administered in 0.4 ml each time and 2 times a day, at 8:00, and 14:00. The administrations were successive for 14 days. The day before administration was deemed as Day 0 and the body weight and tumor size of the mice were determined every 5 days to produce a dynamic plot on body weight and tumor growth. On Day 20, the mice were sacrificed and the tumors were taken out and weighed. The tumor inhibition rate (%) was calculated after the effect of the medicament based on a tumor inhibition rate of the control group being zero.
(§1) The values determined were presented as mean±standard error (Mean±SD). The experimental data for each group was analyzed with One-way ANOVA method in the SPSS 18.0 statistical software, and p<0.05 means that the differences are statistically significant.

The subject of series [2] is Hep G2 transplanted tumor (human hepatoma carcinoma cell). Put plainly: Example 6: TTD and Acla A combined on Hep G2 transplanted tumor in nude mice. It counts as in vivo, BALB/c-nu nude mice. Particulars: Hep G2, Jef 50 mg/kg/time intragastric, 3 times a day, 10 days, Day 29. Here is the method: (§2) Under sterile conditions, the above tumor cells were collected in the logarithmic growth phase. A549 was injected by subcutaneous injection in an amount of 1×10 7/0.2 mL/nude mice (cell viability>90%) into the right subaxillary of the nude mice, whereas HepG2 was injected by subcutaneous injection in an amount of 1×10 7/0 2 mL/nude mice (cell viability>90%) into the left subaxillary of the nude mice, thus establishing transplated tumor models of lung cancer and liver cancer respectively in nude mice. The mice were administered from the second day after the inoculation. […] Each mouse was intragastrically administered in 0.4 ml each time and 3 times a day, at 8:00, 14:00 and 20:00. The administrations were successive for 10 days. The day before administration was deemed as Day 0 and the body weight and tumor size of the mice were determined every 5 days to produce a dynamic plot on body weight and tumor growth. On Day 29, the mice were sacrificed and the tumors were taken out and weighed. The tumor inhibition rate (%) was calculated after the effect of the medicament based on a tumor inhibition rate of the control group being zero.
as §1

For series [3], the system named is A549 transplanted tumor (human non-small cell lung cancer cell line). Put plainly: Example 6: TTD and Acla A combined on A549 transplanted tumor in nude mice. It counts as in vivo, BALB/c-nu nude mice. The settings on record: A549, Jef 50 mg/kg/time intragastric, 3 times a day, 10 days, Day 29. Here is the method:
as §2, §1

In series [4] the test system is peripheral blood leucocyte of a normal human being. The settings on record: berbamine 0.5 μg/mL to 10 μg/mL; cited from earlier work.
The test system of series [5] is human leukemia Jurkat cells. Particulars: cited from earlier work.

Like-named read-outs stand apart in the source and are kept apart here.

For orientation: cell viability means a per cent measure of how many cells are alive, often set against a control.

On to `COc1cc2ncnc(Nc3ccc(F)c(Cl)c3)c2cc1OCCCN1CCOCC1` [Jef, Jefitinib], for which the results for the Mass of tumor in series [1] (Mean ± SD), in series [2] (Mean ± SD) and in series [3] (Mean ± SD) were 0.38 ± 0.37 g, 0.31 ± 0.10 g and 1.52 ± 1.00 g, respectively. For the same molecule, the tumor inhibition rate in series [1] (control = 0) was −14.34%; in series [2] (control = 0, * P < 0.05), 54.08* %; in series [3] (control = 0) it was −34.11%.

`COc1cc2c3cc1Oc1c(OC)c(OC)cc4c1[C@@H](Cc1ccc(O)c(c1)Oc1ccc(cc1)C[C@@H]3N(C)CC2)N(C)CC4` [berbamine, 6,6′,7-trimethoxy-2,2′-dimethylberbaman-12-ol]: in series [4], the “cytotoxic effect (in words)” value is “no evident cytotoxic effect”. The cell viability is reported as 93.69% in series [5] (berbamine 0.5 μg/mL) and 14.85% in series [5] (berbamine 10 μg/mL).

The record behind these values is patent US20150290232A1, “DRUG COMPOSITION FOR TREATING TUMORS AND APPLICATION THEREOF” (priority 2012, published 2015).
